Source: PMC6104695 (Virulence, 2017)
Converted amounts (≈) assume the structure as drawn. “And” between values parts separate entries of the source, which are not always exact repeats. Equal values may be shown once. Ends that are not written are not given here. Peptide text beside a SMILES is read from it.

Columns and labels:
[1] = system: B. anthracis Sterne spores; test: microbe, parasite or virus in culture; settings: Bacillus anthracis, 3 h, pH 7.4, read-out: Sporicidal EC50 (95% Confidence Interval)
[2] = system: B. anthracis Sterne spores; parameters: species or system Galleria mellonella; settings: in vivo
[3] = system: B. anthracis Sterne vegetative bacteria; settings: 24 h
[4] = system: B. anthracis; settings: mouse, in vivo, sc; cited from earlier work

In the case of O=C(O)c1cn(C2CC2)c2cc(N3CCNCC3)c(F)cc2c1=O [Ciprofloxacin], the EC50 [1] was 70.8 µg/mL and > 100 µM, the “Rescue of infected waxworms by ciprofloxacin” value [2] was 100% and the “Survival (%) of B. anthracis infected G. mellonella larvae” value [2] was 100%.

For CC[C@H](C)[C@H](NC(=O)[C@H](CCCCN)NC(=O)[C@H](CCC(=O)O)NC(=O)[C@H](CCCCN)NC(=O)[C@H](CO)NC(=O)[C@H](CCCCN)NC(=O)[C@H](CCCNC(=N)N)NC(=O)[C@H](Cc1ccccc1)NC(=O)[C@H](Cc1ccccc1)NC(=O)[C@H](CC(=O)O)NC(=O)CNC(=O)[C@H](CC(C)C)NC(=O)[C@@H](N)CC(C)C)C(=O)NCC(=O)N[C@@H](CCCCN)C(=O)N[C@@H](CCC(=O)O)C(=O)N[C@@H](Cc1ccccc1)C(=O)N[C@@H](CCCCN)C(=O)N[C@@H](CCCNC(=N)N)C(=O)N[C@H](C(=O)N[C@H](C(=O)N[C@@H](CCC(N)=O)C(=O)N[C@@H](CCCNC(=N)N)C(=O)N[C@H](C(=O)N[C@@H](CCCCN)C(=O)N[C@@H](CC(=O)O)C(=O)N[C@@H](Cc1ccccc1)C(=O)N[C@@H](CC(C)C)C(=O)N[C@@H](CCCNC(=N)N)C(=O)N[C@@H](CC(N)=O)C(=O)N[C@@H](CC(C)C)C(=O)N[C@H](C(=O)N1CCC[C@H]1C(=O)N[C@@H](CCCNC(=N)N)C(=O)N[C@H](C(=O)N[C@@H](CCC(=O)O)C(=O)N[C@@H](CO)C(=O)O)[C@@H](C)O)C(C)C)[C@@H](C)CC)C(C)C)[C@@H](C)CC [LL-37], the MIC [3] was 7.12 µM (≈ 32 µg/mL).

In the case of CC(C)C[C@H](NC(=O)[C@H](CCCNC(=N)N)NC(=O)CNC(=O)CNC(=O)[C@@H](N)CCCNC(=N)N)C(=O)N[C@@H](CS)C(=O)N[C@@H](Cc1ccc(O)cc1)C(=O)N[C@@H](CS)C(=O)N[C@@H](CCCNC(=N)N)C(=O)N[C@@H](CCCNC(=N)N)C(=O)N[C@@H](CCCNC(=N)N)C(=O)N[C@@H](Cc1ccccc1)C(=O)N[C@@H](CS)C(=O)N[C@H](C(=O)N[C@@H](CS)C(=O)N[C@H](C(=O)NCC(=O)N[C@@H](CCCNC(=N)N)C(=O)O)C(C)C)C(C)C [PG-1] (H-RGGRLCYCRRRFCVCVGR-OH; N-terminus and C-terminus assumed), the “Survival of infected mice” value [4] is listed as 80% and the MIC [3] is listed as 7.41 µM (≈ 16 µg/mL).

“GLKLRFEFSKIKGEFLKTPEVRFRDIKLKDNRISVQR [Scrambled LL-37]” gave an MIC [3] greater than 150 µM.

Compound “GLLRKGGEKIGEKLKKIGQKIKNFFQKLVPQPEQ [mCRAMP]” has an MIC [3] of 16.5 µM.
